15 molecules from publication PMC7956560, “New 3-Aryl-2-(2-thienyl)acrylonitriles with High Activity Against Hepatoma Cells” (International Journal of Molecular Sciences, 2021) can be followed below.

The test system of data set [1] is HepG2 cells. Nature of the data set: Colony-formation assay. Particulars: 1, 5, 10 µM, 14 days. In kind it is cell-based, human. Here is the method: HepG2 cells were seeded in 6-well plates at a density of 300 cells/well and allowed to attach overnight. […] Then, the plates were washed twice with PBS, fixed with 4% formaldehyde for 1 h, and stained with 0.5% crystal violet for 3 min. Excessive crystal violet was washed out and the colonies were counted under the microscope. A colony was defined as a cell aggregate with 50 or more cells. Representative images were taken with a kappa digital camera system (Kappa Optronics GmbH, Germany). A total of n = 3 experiments were performed, and significance was tested by one-way ANOVA assays.

Data set [2] concerns the target T1, VEGFR-2 (KDR) (Homo sapiens, UniProt P35968).
T1 construct: purchased Eurofins KinaseProfiler service (Eurofins, France)
Nature of the data set: Enzymatic kinase assay (Eurofins KinaseProfiler). In kind it is biochemical. The following applies: 10 µM compound, cell-free. Here is the method:
(§1) The kinase inhibiting potency of compound 1a, 1b and 1c (10 µM) was screened in a cell-free kinase assay, which consisted of a custom panel of 43 human protein kinases for 1c (listed in Figure 5A), as well as a subpanel of six kinases for 1a and 1b (Figure 5B). The initial panel was chosen to screen the lead compound 1c based on the union of two strategies. A total of 29 kinases were selected based on the correlated results of three in silico target prediction methods including structure- as well as ligand-based techniques and 20 kinases because of their relevance for HCC (note that six kinases were part of both strategies).
(§2) The assay was performed by Eurofins KinaseProfilerTM service (Eurofins, France) and the determination of enzymatic activity was assessed as previously described. Additionally, an IC50 determination of compound 1c against the VEGFR-2 was performed with a concentration range of 0.003 to 30 µM.

The target in data set [3] is T2, CLK1 (Homo sapiens, UniProt P49759).
T2 construct: purchased Eurofins KinaseProfiler service (Eurofins, France)
T2 sequence (P49759 whole entry): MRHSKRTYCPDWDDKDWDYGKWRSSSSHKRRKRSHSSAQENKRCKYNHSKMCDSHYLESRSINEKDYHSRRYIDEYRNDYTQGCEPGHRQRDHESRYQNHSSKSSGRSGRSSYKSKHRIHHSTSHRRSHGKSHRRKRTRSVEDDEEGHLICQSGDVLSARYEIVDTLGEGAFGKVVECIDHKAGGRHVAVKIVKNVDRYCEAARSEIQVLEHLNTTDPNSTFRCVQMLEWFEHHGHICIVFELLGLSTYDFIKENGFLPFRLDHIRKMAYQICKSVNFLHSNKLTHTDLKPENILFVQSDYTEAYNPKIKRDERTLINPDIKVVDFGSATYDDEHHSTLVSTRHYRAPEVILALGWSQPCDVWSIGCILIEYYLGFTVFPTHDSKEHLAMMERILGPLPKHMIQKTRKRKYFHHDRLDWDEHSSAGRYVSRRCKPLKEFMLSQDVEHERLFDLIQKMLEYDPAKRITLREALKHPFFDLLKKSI
Nature of the data set: Enzymatic kinase assay (Eurofins KinaseProfiler). Format: biochemical. The following applies: 10 µM compound, cell-free. Here is the method: as §1, §2

Data set [4] relates to caspase-3 activity of HepG2 cells. Nature of the data set: Apoptosis-specific caspase-3 activity. Format: cell-based, human. The following applies: 24 h; for caspase-3 activity (in words): HepG2, 1 and 10 µM. Here is the method:
Changes in caspase-3 activity were measured by the cleavage of the fluorogenic substrate AC-DEVD-AMC (EMD Millipore, Billerica, MA, USA), as described previously. After 24 h of incubation with 1a, 1b, 1c, 1e and sorafenib (1 and 10 µM) the cells were harvested and lysed with lysis buffer. Subsequently, the lysates were incubated for 1 h at 37 °C with a substrate solution containing 20 μg/mL AC-DEVD-AMC, 20 mM HEPES, 10% glycerol and 2 mM DTT at pH 7.5. Substrate cleavage was measured fluorometrically using a Varioskan Flash Fluorometer (Thermo Fisher Scientific, Waltham, MA, USA; filter sets: ex 360/40 nm, em 460/10 nm). n = 3 independent measurements were performed in triplicate, and data are given as the mean percentage increase ± SD above control, which was set 100%.

Data set [5] has as its system human Huh-7 HCC cells. Nature of the data set: Growth inhibition, crystal violet staining, Huh-7. Particulars: 48 h incubation, mean ± SD, read-out: Anti-proliferative activity IC50, Huh-7. In kind it is cell-based. Here is the method: (§3) The well-differentiated p53 wild-type human hepatoblastoma cell line HepG2 (ATCC# 8065) and the highly differentiated p53 mutated human hepatocellular carcinoma cell line Huh-7 (JCRB#0403) were grown in RPMI 1640 medium supplemented with 10% fetal bovine serum and 100 U/mL penicillin and […] streptomycin. Murine AML-12 hepatocytes were obtained from ATCC (CRL-2254) and grown in DMEM/F-12 Glutamax medium supplemented with 10% fetal bovine serum, 10 µg/mL insulin, 5.5 µg/mL transferrin, 5 ng/mL selenium (Gibco ITS-G 100X) and 40 ng/mL dexamethasone (Sigma-Aldrich). All cell lines were incubated in a 37 °C, 5% CO2, 95% humidified atmosphere.
(§4) Treatment-induced changes in cell number were evaluated by crystal violet staining, as previously described. Briefly, 1.500 cells per well were seeded in 96-well plates for 24 h at 37 °C, 5% CO2. For the experiments with HepG2 and Huh-7 cell lines, cells were incubated with rising concentrations (0–20 µM) of the new compounds (1a–1o) for 48 h. AML12-cells were treated with compounds 1a, 1b, 1c, 1e, 1i and 1j for 48 h and at concentrations ranging from 0.5–64 µM. Thereafter, the cells were fixed with 1% glutaraldehyde and stained with 0.1% crystal violet (Sigma-Aldrich). The unbound dye was removed by rinsing with water. Bound crystal violet was solubilized with 0.2% Triton X-100 (Sigma-Aldrich). Light extinction of crystal violet, which increases linearly with cell number, was analyzed at 570 nm using an ELISA-Reader (Dynex Technologies, Denkendorf, Germany). All experiments were carried out in duplicate or triplicate.

Data set [6] deals with non-malignant murine AML-12 hepatocytes. The data set is described as follows: Growth inhibition, crystal violet staining, AML-12. In kind it is cell-based. Particulars: for IC50 against AML-12 hepatocytes relative to hepatoma cells: AML-12 vs hepatoma cells (HepG2, Huh-7), 48 h; for IC50: Mus musculus, AML12, 48 h incubation, mean ± SD, read-out: Anti-proliferative activity IC50, AML-12. Here is the method: as §3, §4

Data set [7] relates to human HepG2 hepatoblastoma cells. Nature of the data set: Growth inhibition, crystal violet staining, HepG2. Format: cell-based. Particulars: 48 h incubation, mean ± SD, read-out: Anti-proliferative activity IC50, HepG2. Here is the method:
as §3, §4

In data set [8] the test system is HepG2 cells. Nature of the data set: LDH release assay (unspecific cytotoxicity). Format: cell-based, human. The following applies: HepG2, 0.5 and 10 µM, 12 or 24 h. Here is the method:
Unspecific cytotoxicity induced by treatment with 0.5 µM and 10 µM of 1a, 1b, 1c and sorafenib (LC Laboratories, Woburn, MA, USA) was determined by measuring the release of lactate dehydrogenase (LDH) from HepG2 cells into the supernatant after 12 and 24 h (Cytotoxicity Detection KitPLUS LDH, Roche Diagnostics GmbH, Mannheim, Germany). The supernatant of treated samples was collected, and adherent non-treated cells were lysed with 2% Triton X-100 for 10 min to determine the maximum LDH release. All samples were mixed with catalyst and dye solution for 30 min, resulting in the formation of formazan dye proportional to LDH enzyme activity. The absorbance was measured at 490/630 nm using an ELISA reader (Dynex Technologies, Denkendorf, Germany) and cytotoxicity was determined by subtracting the percentage of LDH release under control conditions of those from treated samples. Experiments were performed in duplicate and data are given as mean percentage changes ± SD as compared to controls of n = 3 experiments.
On the technique in general: LDH leaks from cells whose membrane has failed.

The subject of data set [9] is HepG2-tumors grown on membranes of fertilized chicken eggs. Nature of the data set: Chorioallantoic membrane (CAM) assay. Format: in vivo. Here is the method:
The chorioallantoic membrane (CAM) assay was performed as described previously. Fertilized chicken eggs (Gallus gallus) were obtained from commercial sources (Valo GmbH, Germany) and incubated in a humid environment at 38 °C. On day 3 of the egg development, a window was cut in the eggshell to access the developing vascular network of the CAM. At day 10 of chicken embryo development, a sterile silicon ring (10 mm diameter) was placed on the CAM and tumor plugs of 3 × 10^6 HepG2 cells in 20 µL Matrigel (BD Biosciences) with reduced growth factors were placed inside the silicon ring. After 24 h at 38 °C in an incubator, the tumor plaques attached and connected to the (tumor-)feeding CAM microvasculature. Then, the tumor plaques were topically treated with either PBS (negative control) or PBS containing rising concentrations of 1b (0–10 µM), 1c (0–2.5 µM) or sorafenib (10 μM) for 3 days. Tumor growth and viability of the embryo were controlled daily by stereo microscopy. After 72 h of treatment, the tumors were recovered for weighing and pictures were taken using a stereomicroscope equipped with a Kappa digital camera system (Kappa Optronics GmbH, Germany). For data analysis, the tumor weight of 1c-treated and untreated control tumors was determined and the mean weight of treated vs. untreated tumors of 11 eggs for each condition was calculated. Statistical significance evaluated by one-way ANOVA tests.

T1 sequence (P35968 20-1356): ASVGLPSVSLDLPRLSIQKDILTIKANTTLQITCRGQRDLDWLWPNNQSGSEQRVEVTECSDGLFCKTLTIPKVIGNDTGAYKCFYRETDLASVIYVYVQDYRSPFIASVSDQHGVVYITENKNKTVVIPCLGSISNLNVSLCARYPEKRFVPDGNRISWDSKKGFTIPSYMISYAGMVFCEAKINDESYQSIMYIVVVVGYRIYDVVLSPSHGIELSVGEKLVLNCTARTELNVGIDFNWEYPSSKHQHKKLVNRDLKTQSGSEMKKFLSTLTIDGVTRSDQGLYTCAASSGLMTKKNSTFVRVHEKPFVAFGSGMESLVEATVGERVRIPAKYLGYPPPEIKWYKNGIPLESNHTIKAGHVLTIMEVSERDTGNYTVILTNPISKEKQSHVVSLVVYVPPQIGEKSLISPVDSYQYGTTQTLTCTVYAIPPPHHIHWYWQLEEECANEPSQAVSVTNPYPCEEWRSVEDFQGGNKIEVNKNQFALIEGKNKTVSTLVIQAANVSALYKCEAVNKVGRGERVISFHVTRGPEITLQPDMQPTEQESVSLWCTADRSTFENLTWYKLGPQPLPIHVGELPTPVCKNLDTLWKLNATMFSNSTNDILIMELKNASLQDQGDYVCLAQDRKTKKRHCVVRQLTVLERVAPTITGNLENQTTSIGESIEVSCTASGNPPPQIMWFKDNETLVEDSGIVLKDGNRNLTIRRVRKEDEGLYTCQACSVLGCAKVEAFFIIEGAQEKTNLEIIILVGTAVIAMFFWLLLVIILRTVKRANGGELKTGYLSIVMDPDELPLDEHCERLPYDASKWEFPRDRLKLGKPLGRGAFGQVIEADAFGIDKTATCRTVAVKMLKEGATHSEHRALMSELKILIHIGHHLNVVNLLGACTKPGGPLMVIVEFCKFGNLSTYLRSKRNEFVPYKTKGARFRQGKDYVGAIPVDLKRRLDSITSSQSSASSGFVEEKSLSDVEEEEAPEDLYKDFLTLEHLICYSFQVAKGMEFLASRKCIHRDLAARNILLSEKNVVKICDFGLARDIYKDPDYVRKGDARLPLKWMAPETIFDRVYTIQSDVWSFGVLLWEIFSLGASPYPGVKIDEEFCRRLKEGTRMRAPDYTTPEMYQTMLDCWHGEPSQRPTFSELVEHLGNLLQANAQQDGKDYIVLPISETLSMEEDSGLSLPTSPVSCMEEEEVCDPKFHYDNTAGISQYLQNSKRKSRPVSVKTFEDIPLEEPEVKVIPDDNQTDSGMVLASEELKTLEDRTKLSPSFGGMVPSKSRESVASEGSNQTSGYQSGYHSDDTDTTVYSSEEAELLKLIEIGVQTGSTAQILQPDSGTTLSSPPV

On to `COc1ccc(C=C(C#N)c2cccs2)cc1` [Compound 1a], for which the “effect on HepG2 colony formation (in words)” value (shortened to “effect”) in [1] was “significantly inhibited HepG2 colony formation”. Moreover, the “inhibition of VEGFR-2 (KDR)” value in [2] was “lacks any activity”. In addition, the inhibition at 10 µM in data set [3] amounted to 68%. Further, the “caspase-3 activity (in words)” value in data set [4] was “dose-dependently induced caspase-3 activity”. Besides, the IC50 came to 1.2 ± 0.42 µM in [5], 6.79 ± 0.32 µM in data set [6] and 1.46 ± 0.21 µM in [7]. In addition, the “IC50 against AML-12 hepatocytes relative to hepatoma cells” value in [6] is “up to 10 fold”. Besides, the “LDH release / unspecific cytotoxicity (in words)” value in data set [8] is listed as “do not exert considerable unspecific cytotoxicity”.

With `COc1cc(/C=C(\C#N)c2cccs2)ccc1-c1ccccc1Cl` [Compound 1f], the IC50 in data set [5] and in [7] was over 20 µM throughout.

`COc1ccc(C=C(C#N)c2cccnc2)cc1O` [Compound 2, reference compound]: the IC50 in [7] is 6.26 ± 1.18 µM.

On to `Cn1ccc2cc(/C=C(\C#N)c3cccs3)ccc21` [Compound 1o, 2-{1-Cyano-2-[N-methylindol-5-yl]-(E)-ethenyl}-thiophene], for which the concentration for half-maximal inhibition (IC50) in data set [5] and in [7] was over 20 µM in each case.

As for `COc1cc(/C=C(\C#N)c2cccs2)ccc1O` [Compound 1d], the IC50 in data set [5] and in data set [7] was over 20 µM in each case.

On to `CN(C)c1ccc(C=C(C#N)c2cccs2)cc1` [Compound 1b], for which the “effect” value in [1] was “significantly inhibited HepG2 colony formation”. For the same molecule, the inhibition at 10 µM in data set [2] was determined as 86%. Besides, the “caspase-3 activity compared with the other compounds (in words)” value in [4] (HepG2, 10 µM) was “comparably stronger increase in caspase-3 activity than the other compounds”. Also, the “caspase-3 activity (in words)” value in data set [4] is listed as “dose-dependently induced caspase-3 activity”. Further, the half-inhibitory concentration (IC50) was found to be 0.67 ± 0.13 µM in data set [5], 2.72 ± 0.78 µM in [6] and 0.72 ± 0.09 µM in data set [7]. Further, in data set [6], the “IC50 against AML-12 hepatocytes relative to hepatoma cells” value is on record as “up to 10 fold”. In addition, the “LDH release / unspecific cytotoxicity (in words)” value in data set [8] is on record as “do not exert considerable unspecific cytotoxicity”. The “tumor reduction vs PBS-treated controls (in words)” value in data set [9] (topical treatment 72 h, 1b 0–10 µM, 1c 0–2.5 µM, sorafenib 10 µM) is “pronounced tumor reductions”. Also, the “tolerability, mortality and development of chicken embryos” value in [9] (treated vs untreated eggs) was “well tolerated”.

Consider `COCCOc1ccc(/C=C(\C#N)c2cccs2)cc1OCCOC` [Compound 1h, 2-{1-Cyano-2-[3,4-bis(2-methoxyethoxy)phenyl]-(E)-ethenyl}-thiophene], for which the half-maximal inhibitory concentration (IC50) in data set [5] and in data set [7] was over 20 µM in each case.

With `COc1ccc(C=C(C#N)c2cccs2)cc1C` [Compound 1e, 2-[1-Cyano-2-(3-methyl-4-methoxyphenyl)-(E)-ethenyl)]-thiophene], in [1], the “effect” value is “significantly inhibited HepG2 colony formation”. In addition, the “caspase-3 activity (in words)” value in data set [4] was “dose-dependently induced caspase-3 activity”. Also, the results for the IC50 in [5], in data set [6] and in data set [7] were 1.85 ± 0.21 µM, 14.8 ± 2.39 µM and 1.3 ± 0.17 µM, respectively. In data set [6], the “IC50 against AML-12 hepatocytes relative to hepatoma cells” value is given as “up to 10 fold”.

Consider `COc1ccc(/C=C(\C#N)c2cccs2)cc1Br` [Compound 1l, 2-[1-Cyano-2-(3-bromo-4-methoxyphenyl)-(E)-ethenyl]-thiophene], for which, in data set [7], the IC50 is 13.9 ± 1.16 µM.

`COc1ccc(/C=C(\C#N)c2cccs2)cc1F` [Compound 1j, 2-[1-Cyano-2-(3-fluoro-4-methoxyphenyl)-(E)-ethenyl]-thiophene]: the half-inhibitory concentration (IC50) came to 5.7 ± 1.2 µM in data set [5], 9.42 ± 0.91 µM in data set [6] and 4.9 ± 1.54 µM in data set [7].

For the molecule `N#C/C(=C\c1cccc(O)c1)c1cccs1` [Compound 1m, 2-[1-Cyano-2-(3-hydroxyphenyl)-(E)-ethenyl]-thiophene], the IC50 in data set [5] and in data set [7] was over 20 µM each time.

For the molecule `COc1ccc(/C=C(\C#N)c2cccs2)cc1OCCCN1CCOCC1` [Compound 1n, 2-{1-Cyano-2-[4-methoxy-3-(3-morpholinopropoxy)phenyl]-(E)-ethenyl}-thiophene], the IC50 in [5] and in [7] was over 20 µM each time.

In the case of `COCCOc1ccc(/C=C(\C#N)c2cccs2)cc1F` [Compound 1k, 2-{1-Cyano-2-[3-fluoro-4-(2-methoxyethoxy)phenyl]-(E)-ethenyl}-thiophene], the IC50 in data set [5] and in data set [7] was over 20 µM in each case.

Regarding `CN1CCN(c2ccc(/C=C(\C#N)c3cccs3)cc2)CC1` [Compound 1i, 2-[1-Cyano-2-(4-N-methylpiperazin-1-ylphenyl)-(E)-ethenyl]-thiophene], the IC50 amounted to 11.8 ± 0.56 µM in [5], 20.5 ± 1.25 µM in data set [6] and 9.3 ± 0.82 µM in data set [7].

With `COCCOc1cc(/C=C(\C#N)c2cccs2)ccc1OC` [Compound 1g, 2-[1-Cyano-2-[4-Methoxy-3-(2-methoxyethoxy)phenyl]-(E)-ethenyl}-thiophene], the IC50 in data set [5] and in data set [7] was over 20 µM throughout.

Usually inhibition stands for how much of the control response was suppressed. Read a high inhibition as a response far below the control. As a reminder, the IC50 is the concentration needed to halve the response being measured.
